Data on three compounds can be found in patent publication US8927563B2, “Kinase inhibitor” (Respivert Limited, priority 2013, dated 2015).

Read-outs that look alike come from different tables or passages of the source. Bounds are passed on as bounds.

A short description of data set [1]: Hydrolytic stability study. Format: physicochemical. Conditions: DMSO and water (3:1), 1 mg/mL. The method, then: Chemical stability of Compound I was assessed in a mixture of DMSO and water (3:1) at a test compound concentration of 1 mg/mL
Sample Preparation • A 1.0 mg sample of test compound was dissolved in 750 μL of DMSO. Water (250 μL) was added slowly, ensuring no precipitation occurred.
Recording Stability • A 50 μL aliquot of the test solution was removed and analysed in duplicate by 5 μL HPLC injections. The peak area for the test compound was recorded following manual integration of the corresponding UV trace. • The test solution was heated to 60° C., with stirring, and 50 μL aliquots removed for HPLC analysis at 5 and 24 h timepoints.

Another data set has as its system d-U937 cells. Kind of data set: Accumulation of β catenin in d-U937 cells. Type of data set: cell-based, human. Particulars: 1 μg/mL; normalised to Reference compound at 1 μg/mL. The method, then: U937 cells, a human monocytic cell line, are differentiated into macrophage-type cells by incubation with PMA (100 ng/mL) for between 48 to 72 hr. The cells are then incubated with either final concentrations of test compound or vehicle for 18 hr. The induction of β-catenin by the test compound is stopped by replacing the media with 4% formaldehyde solution. Endogenous […] is neutralised by incubating with quenching buffer (100 μL, 0.1% sodium azide, 1% H2O2 in PBS with 0.05% Tween-20) for 20 min. The cells are washed with washing buffer (200 μL; PBS containing 0.05% Tween-20) and incubated with blocking solution (200 μL; 5% milk in PBS) for 1 hr, re-washed with washing buffer (200 μL) and then incubated overnight with anti-β-catenin antibody solution (50 μL) in 1% BSA/PBS (BD, Oxford, UK).
After washing with washing buffer (3×200 μL; PBS containing 0.05% Tween-20), cells are incubated with a HRP-conjugated secondary antibody solution (100 μL) in 1% BSA/PBS (Dako, Cambridge, UK) and the resultant signal is determined colourimetrically (OD: 450 nm with a reference wavelength of 655 nm) using TMB substrate (50 μL; R&D Systems, Abingdon, UK). This reaction is stopped by addition of 1N H2SO4 solution (50 μL). Cells are then washed with washing buffer and 2% crystal violet solution (50 μL) is applied for 30 min. After washing with washing buffer (3×200 μL), 1% SDS (100 μL) is added to each well and the plates are shaken lightly for 1 hr prior to measuring the absorbance at 595 nm (Varioskan® Flash, Thermo-Fisher Scientific).
The measured OD450-655 readings are corrected for cell number by dividing the OD450-655 by the OD595 readings.

The next data set has as its system non-mutant kinases. Kind of data set: KinomeScan selectivity scores. Format: binding. Conditions: for number of individual kinase hits, S(1): % Ctrl <1; for number of individual kinase hits, S(10): % Ctrl <10; for number of individual kinase hits, S(35): % Ctrl <35. The method, then:
Kinase enzyme binding activities of compounds disclosed herein may be determined using a proprietary assay which measures active site-directed competition binding to an immobilized ligand (Fabian, M. A. et al., Nature Biotechnol., 2005, 23:329-336). These assays may be conducted by DiscoverX (formerly Ambit; San Diego, Calif.). The percentage inhibition produced by incubation with a test compound may be calculated relative to the non-inhibited control.

A further data set has as its target CYP2C9 (Homo sapiens (Human), UniProt P11712). Kind of data set: CYP2C9 inhibition with and without preincubation. Format: in vitro ADME. Particulars: for inhibition at 5 μM: human, 5 μM (precipitation at 15 μM), read-out: % Inh, inhibition at 5 μM reported instead. The protocol: (§1) Assessment of certain in vitro ADME (absorption, distribution, metabolism, and excretion) parameters for Compound I was conducted by BioFocus (Saffron Walden, UK). The results reveal that Compound I is cleared rapidly by human hepatocytes and that it has a reduced liability for time-dependent cytochrome P450 inhibition.

Another data set addresses CYP3A4 (Homo sapiens (Human), UniProt P08684). Kind of data set: CYP3A4 inhibition with and without preincubation. Format: in vitro ADME. Conditions: for inhibition at 15 µM: human, read-out: 15 μM % Inh. The protocol: as §1

A word on the IC50: it is the concentration at which inhibition is half-maximal. Higher therefore signals weaker potency.

Sequence of CYP2C9 (P11712 whole entry): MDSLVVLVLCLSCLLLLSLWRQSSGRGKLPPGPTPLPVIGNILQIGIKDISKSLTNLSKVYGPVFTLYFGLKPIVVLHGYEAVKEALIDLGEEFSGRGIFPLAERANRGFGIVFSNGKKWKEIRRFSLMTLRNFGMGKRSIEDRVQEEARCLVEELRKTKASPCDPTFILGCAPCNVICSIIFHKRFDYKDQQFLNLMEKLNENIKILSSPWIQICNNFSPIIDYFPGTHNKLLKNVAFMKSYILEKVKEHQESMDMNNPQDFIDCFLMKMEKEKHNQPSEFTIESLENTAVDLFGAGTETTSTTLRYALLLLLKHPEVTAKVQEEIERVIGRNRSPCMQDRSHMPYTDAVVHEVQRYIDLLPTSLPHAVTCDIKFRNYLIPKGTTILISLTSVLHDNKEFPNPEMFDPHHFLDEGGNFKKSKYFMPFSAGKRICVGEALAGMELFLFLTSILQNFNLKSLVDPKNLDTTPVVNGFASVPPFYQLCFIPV
Sequence of CYP3A4 (P08684 whole entry): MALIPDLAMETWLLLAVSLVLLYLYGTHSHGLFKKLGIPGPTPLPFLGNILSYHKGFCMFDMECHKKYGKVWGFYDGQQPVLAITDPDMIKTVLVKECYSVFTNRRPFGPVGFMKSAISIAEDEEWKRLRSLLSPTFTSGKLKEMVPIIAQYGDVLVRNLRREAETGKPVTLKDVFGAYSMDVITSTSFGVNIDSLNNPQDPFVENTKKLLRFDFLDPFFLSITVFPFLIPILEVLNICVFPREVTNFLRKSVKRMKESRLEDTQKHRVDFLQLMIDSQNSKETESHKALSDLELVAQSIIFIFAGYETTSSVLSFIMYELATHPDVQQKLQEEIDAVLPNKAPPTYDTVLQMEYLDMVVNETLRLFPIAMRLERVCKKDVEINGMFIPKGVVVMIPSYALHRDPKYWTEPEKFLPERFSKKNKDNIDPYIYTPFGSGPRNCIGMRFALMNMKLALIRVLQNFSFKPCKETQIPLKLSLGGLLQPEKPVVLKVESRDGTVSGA

`C#Cc1cc(Nc2nccc(Oc3ccc(NC(=O)Nc4cc(C(C)C)nn4-c4ccc(C)cc4)c4ccccc34)n2)cc(C(=O)NCCN2CCOCC2)c1` [Reference Compound B, 3-ethynyl-5-((4-((4-(3-(3-isopropyl-1-(p-toly)-1H-pyrazol-5-yl)ureido)naphthalen-1-yl)oxy)pyrimidin-2-yl)amino)-N-(2-morpholinoethyl)benzamide, reference compound]: the “% Parent Remaining” value is 100% in data set [1] (0 min); 82% in data set [1] (60° C., 300 min); 36% in data set [1] (60° C., 1440 min).
As for `COCC(=O)Nc1cc(Oc2ccc(NC(=O)Nc3cc(C(C)(C)C)nn3-c3ccc(C)cc3)c3ccccc23)ccn1` [Reference Compound, N-(4-(4-(3-(3-tert-butyl-1-p-tolyl-1H-pyrazol-5-yl)ureido)naphthalen-1-yloxy)pyridin-2-yl)-2-methoxyacetamide, reference compound], in the data set with d-U937 cells, the “% β-catenin induction” value came to 100%. In the data set on non-mutant kinases (50 nM), the “number of individual kinase hits, S(1)” value was 7; the “number of individual kinase hits, S(10)” value was determined as 32; the “number of individual kinase hits, S(35)” value was found to be 67. In addition, in the data set on non-mutant kinases (500 nM), the “number of individual kinase hits, S(1)” value came out at 45; the “number of individual kinase hits, S(10)” value amounted to 105; the “number of individual kinase hits, S(35)” value turned out to be 143.
As for `C#CC(C)(C)c1cc(NC(=O)Nc2ccc(Oc3ccnc(Nc4cc(C)c5[nH]ncc5c4)n3)c3ccccc23)n(-c2ccc(C)cc2)n1` [Ref Cpd A, 1-(4-((2-((7-methyl-1H-indazol-5-yl)amino)pyrimidin-4-yl)oxy)-naphthalen-1-yl)-3-(3-(2-methylbut-3-yn-2-yl)-1-(p-tolyl)-1H-pyrazol-5-yl)urea, reference compound], the IC50 at CYP2C9 (CYP2C9, 0 min preincubation) is over 5000 nM; against CYP2C9 (CYP2C9, 30 min preincubation), 1400 nM; on CYP3A4 (CYP3A4, 0 min preincubation), over 15000 nM; against CYP3A4 (CYP3A4, 30 min preincubation), 400 nM. Moreover, the inhibition at 5 μM on CYP2C9 (CYP2C9, 0 min preincubation) is 31%; at CYP2C9 (CYP2C9, 30 min preincubation), 66%. For the same compound, the inhibition at 15 µM on CYP3A4 (CYP3A4, 0 min preincubation) turned out to be 41%; on CYP3A4 (CYP3A4, 30 min preincubation), 92%.
